Measurements as given in patent US20240401154A1, “SYNTHESIS AND PREPARATION OF ULTRA-LOW VISCOSITY AND HIGH MAGNETIC SUSCEPTIBILITY MAGNETIC IONIC LIQUIDS” (priority 2023, published 2024).

Columns and labels:
[1] = Thermal stability, MIL as GC stationary phase with FID; format: physicochemical; settings: exponential increase in response beyond 2,000 pA
Protocol: The thermal stability of MILs was measured from 40 to 350° C. at a ramp rate of 5° C. min^−1 by performing thermogravimetric analysis (TGA) using a NETZSCH STA 449 F1 Jupiter thermal analyzer (Selb, Germany). To further investigate the thermal stability of MILs using a more sensitive technique, the solvents were employed as a gas chromatographic (GC) stationary phase and subjected to an oven temperature program from 40 to 200° C. at a ramp rate of 1° C. min^−1 and decomposition/degradation products detected using an ultra-sensitive flame ionization detector (FID), with all measurements being performed on an Agilent Technologies 7890B gas chromatograph (Santa Clara, CA, USA).
To further investigate the thermal stability of MILs using a more sensitive technique, the solvents were employed as a gas chromatographic (GC) stationary phase and subjected to an oven temperature program from 40 to 200° C. at a ramp rate of 1° C. min^−1 and decomposition/degradation products detected using an ultra-sensitive flame ionization detector (FID).

[2] = Viscosity, Brookfield DVI cone and plate viscometer; format: physicochemical; settings: 21.7° C.; neat MIL dried 48 hours under vacuum
Protocol: A Brookfield DVI cone and plate viscometer equipped with a CPA-51Z cone spindle was employed to obtain viscosity measurements at […] using approximately 0.5 g of each MIL after extensive drying for 48 hours under vacuum. Viscosity measurements were conducted at 21.7° C. for 15 lanthanide and transition metal MILs examined in this study.
Viscosity measurements were conducted at 21.7° C. for 15 lanthanide and transition metal MILs examined in this study.

In the case of `CCCCCCCCOC(=O)COCC(=O)OCCCCCCCC.CCCCCCCCOC(=O)COCC(=O)OCCCCCCCC.CCCCCCCCOC(=O)COCC(=O)OCCCCCCCC.CCCCCCCCOC(=O)COCC(=O)OCCCCCCCC.CCCCCCCCOC(=O)COCC(=O)OCCCCCCCC.CCCCCCCCOC(=O)COCC(=O)OCCCCCCCC.O=C(C=C([O-])C(F)(F)F)C(F)(F)F.O=C(C=C([O-])C(F)(F)F)C(F)(F)F.O=C(C=C([O-])C(F)(F)F)C(F)(F)F.O=C(C=C([O-])C(F)(F)F)C(F)(F)F.O=C(C=C([O-])C(F)(F)F)C(F)(F)F.O=C(C=C([O-])C(F)(F)F)C(F)(F)F.O=C(C=C([O-])C(F)(F)F)C(F)(F)F.O=C(C=C([O-])C(F)(F)F)C(F)(F)F.[Co+2].[Gd+3].[Gd+3]` [MIL 14], the “Onset of MIL volatilization (° C.)^1” value ([1]; listed as [Co(C8-DGE)6][Gd(hfacac)4]2) is reported as “approximately 120 °C”.
With `CCCCCCCCOC(=O)COCC(=O)OCCCCCCCC.CCCCCCCCOC(=O)COCC(=O)OCCCCCCCC.CCCCCCCCOC(=O)COCC(=O)OCCCCCCCC.CCCCCCCCOC(=O)COCC(=O)OCCCCCCCC.CCCCCCCCOC(=O)COCC(=O)OCCCCCCCC.CCCCCCCCOC(=O)COCC(=O)OCCCCCCCC.O=C(C=C([O-])C(F)(F)F)C(F)(F)F.O=C(C=C([O-])C(F)(F)F)C(F)(F)F.O=C(C=C([O-])C(F)(F)F)C(F)(F)F.O=C(C=C([O-])C(F)(F)F)C(F)(F)F.O=C(C=C([O-])C(F)(F)F)C(F)(F)F.O=C(C=C([O-])C(F)(F)F)C(F)(F)F.O=C(C=C([O-])C(F)(F)F)C(F)(F)F.O=C(C=C([O-])C(F)(F)F)C(F)(F)F.[Co+2].[Ho+3].[Ho+3]` [MIL 15] the “Onset of MIL volatilization (° C.)^1” value ([1]; listed as [Co(C8-DGE)6][Ho(hfacac)4]2) was “approximately 120 °C”.
For `CCCCCCOC(=O)COCC(=O)OCCCCCC.CCCCCCOC(=O)COCC(=O)OCCCCCC.CCCCCCOC(=O)COCC(=O)OCCCCCC.CCCCCCOC(=O)COCC(=O)OCCCCCC.CCCCCCOC(=O)COCC(=O)OCCCCCC.CCCCCCOC(=O)COCC(=O)OCCCCCC.O=C(C=C([O-])C(F)(F)F)C(F)(F)F.O=C(C=C([O-])C(F)(F)F)C(F)(F)F.O=C(C=C([O-])C(F)(F)F)C(F)(F)F.O=C(C=C([O-])C(F)(F)F)C(F)(F)F.O=C(C=C([O-])C(F)(F)F)C(F)(F)F.O=C(C=C([O-])C(F)(F)F)C(F)(F)F.[Co+2].[Co+2].[Co+2]` [MIL 1], the “Viscosity (cP)” value [2] was 175.0 cP.
